From patent publication US20230037448A1, “FLUORINATED QUINOLINE AND QUINOXALINE DERIVATIVES AS DIHYDROOROTATE DEHYDROGENASE (DHODH) INHIBITORS FOR THE TREATMENT OF CANCER, AUTOIMMUNE AND INFLAMMATORY DISEASES” (Janssen Biotech, Inc., priority 2019, published 2023)

Assays:
[1] = target: T1, human DHODH (Homo sapiens, UniProt Q02127); assay: DHODH Enzymatic Assay; type: biochemical; settings: purified human DHODH; DCIP absorbance, end-point mode
T1 construct: purchased Proteros PR-0044
Experimental: To detect DHODH enzyme activities, dichloroindophenol (DCIP) is added as the final electron acceptor in the assay. DCIP can accept electrons from the reduced coenzyme Q generated in the assay, or from dihydroorotate (DHO) via FMN by binding presumably to the ubiquinone pocket. DCIP solutions are blue, with an intense absorbance around 600 nm, but becomes colorless upon reduction (J. Biol. Chem. (1986) 261, 11386). The assay buffer contained […], pH 7.5, 150 mM NaCl, 0.5 mM EDTA, and 0.1% Triton X-100 in MilliQ water. Substrate consisting of 20 mM DHO, 5 mM CoQ6, and 1 mM DCIP in assay buffer, initiates the reaction. The assay is run in end-point mode by quenching the reaction with the potent DHODH inhibitor brequinar. Absorbance measurements were obtained using the BMG Phera Star plate-reading spectrophotomer. Purified human DHODH was purchased from Proteros (cat. No. PR-0044). Chemicals were purchased from Sigma-Aldrich, Teknova, and Avanti Polar Lipids. Liquid handling was performed using Labcyte Echo and Formulatrix Tempest.

[2] = system: MOLM-13 cells; assay: MOLM-13 Cellular Assay; type: cell-based; settings: 72 hours exposure, cell viability by CellTiter-Glo
Experimental: MOLM-13 cells were obtained from DSMZ and were maintained in RPMI 1640+Glutamax+25 mM HEPES (Invitrogen, catalog number 72400) supplemented with 10% heat inactivated fetal bovine serum (FBS; Invitrogen, catalog number 16140). The day prior to assay set-up, cells were pelleted, resuspended in fresh media, counted, and cells were plated at 0.4×10^6 cell/mL in a T150 flask. On the day of the assay, cells were pelleted, resuspend in fresh media, counted, and seeded at 5,000 cells/well in white opaque 96-well tissue culture treated microplates (Perkin Elmer, catalog number 6005680). Cells were exposed to different concentrations of test compounds at 37° C., 5% CO2 for 72 hours immediately after seeding. Cell viability was acquired on a Perkin Elmer Envision 2104 multilabel reader using the CellTiter-Glo assay (Promega) according to the manufacturer's instructions.

T1 sequence (Q02127 whole entry): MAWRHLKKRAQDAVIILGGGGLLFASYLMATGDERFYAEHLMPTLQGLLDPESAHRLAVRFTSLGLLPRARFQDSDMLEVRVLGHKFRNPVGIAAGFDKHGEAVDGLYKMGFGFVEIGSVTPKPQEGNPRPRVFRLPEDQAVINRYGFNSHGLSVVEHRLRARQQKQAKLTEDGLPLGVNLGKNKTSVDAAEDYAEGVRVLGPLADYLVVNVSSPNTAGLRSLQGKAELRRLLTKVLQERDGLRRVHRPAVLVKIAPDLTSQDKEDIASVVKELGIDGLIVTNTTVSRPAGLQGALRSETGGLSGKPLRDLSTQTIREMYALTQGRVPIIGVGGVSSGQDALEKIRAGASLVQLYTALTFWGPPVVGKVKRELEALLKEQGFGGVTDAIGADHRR

SMILES | IC50 [1] [nM] | IC50 ([2]; Homo sapiens, MOLM-13, 72 h) [nM] | IC50 [2] [nM]
CCn1c(CO)nn(-c2cc3c(C(C)C)cc(-c4c(C)cnc(OC)c4C)nc3cc2F)c1=O [Example 4, 4-Ethyl-1-(7-fluoro-4-isopropyl-2-(2-methoxy-3,5-dimethylpyridin-4-yl)quinolin-6-yl)-3-(hydroxymethyl)-1H-1,2,4-triazol-5 (4H)-one] | 1.7 | 8.4 | 
CCn1c(CO)nn(-c2cc3c(C(C)C)cc(-c4c(C(F)(F)F)n[nH]c4C)nc3cc2F)c1=O [Example 3, 4-Ethyl-1-(7-fluoro-4-isopropyl-2-(5-methyl-3-(trifluoromethyl)-1H-pyrazol-4-yl)quinolin-6-yl)-3-(hydroxymethyl)-1H-1,2,4-triazol-5 (4H)-one] | 0.58 | 0.7 | 
CCn1c(CO)nn(-c2cc3c(C(C)C)cc(-c4ccnc(O)c4C)nc3cc2F)c1=O [Example 22, 4-Ethyl-1-(7-fluoro-2-(2-hydroxy-3-methylpyridin-4-yl)-4-isopropylquinolin-6-yl)-3-(hydroxymethyl)-1H-1,2,4-triazol-5 (4H)-one] | 3.9 | > 100 | 
CCn1c(CO)nn(-c2cc3c(C(C)C)cc(-c4c(C)cnc(O)c4C)nc3cc2F)c1=O [Example 19, 4-Ethyl-2-(7-fluoro-2-(2-hydroxy-3,5-dimethylpyridin-4-yl)-4-isopropylauinolin-6-yl)-5-(hydroxymethyl)-2,4-dihydro-3H-1,2,4-triazol-3-one] | 12 | > 100 | 
CCn1c(CO)nn(-c2cc3c(C(C)C)cc(C4CCOCC4)nc3cc2F)c1=O [Example 20, 4-Ethyl-1-(7-fluoro-4-isopropyl-2-(tetrahydro-2H-pyran-4-yl)quinolin-6-yl)-3-(hydroxymethyl)-1H-1,2,4-triazol-5 (4H)-ene] | 730 | > 100 | 
CCn1c(CO)nn(-c2cc3c(C(C)C)cc(N4CCCCC4)nc3cc2F)c1=O [Example 14, 4-Ethyl-1-(7-fluoro-4-isopropyl-2-(piperidin-1-yl)quinolin-6-yl)-3-(hydroxymethyl)-1H-1,2,4-triazol-5 (4H)-one] | 120 | 100 | 
CCn1c(CO)nn(-c2cc3c(C(C)C)cc(N4CCCC[C@@H]4C)nc3cc2F)c1=O [Example 17, (S)-4-Ethyl-2-(7-fluoro-4-isopropyl-2-(2-methylpiperidin-1-yl)quinolin-6-yl)-5-(hydroxymethyl)-2,4-dihydro-3H-1,2,4-triazol-3-one] | 230 | 40 | 
CCn1c(CO)nn(-c2cc3c(C(C)C)cc(-c4ccccc4C)[n+]([O-])c3cc2F)c1=O [Example 21, 6-(4-Ethyl-3-(hydroxymethyl)-5-oxo-4,5-dihydro-1H-1,2,4-triazol-1-yl)-7-fluoro-4-isopropyl-2-(o-tolyl)quinoline 1-oxide] | 4.6 | 5 | 
CCn1c(CO)nn(-c2cc3c(C(C)C)cc(-c4cc(OC)ncc4C)nc3cc2F)c1=O [Example 8, 4-Ethyl-1-(7-fluoro-4-isopropyl-2-(2-methoxy-5-methylpyridin-4-yl)quinolin-6-yl)-3-(hydroxymethyl)-1H-1,2,4-triazol-5 (4H)-one] | 4.8 | 9.1 | 
CCn1c(CO)nn(-c2cc3c(C(C)C)cc(-c4c(Cl)c(O)nn4C)nc3cc2F)c1=O [Example 25, 2-(2-(4-Chloro-3-hydroxy-1-methyl-1H-pyrazol-5-yl)-7-fluoro-4-isopropylquinolin-6-yl)-4-ethyl-5-(hydroxymethyl)-2,4-dihydro-3H-1,2,4-triazol-3-one] | 11 | 6 | 
CCn1c(CO)nn(-c2cc3c(C(C)C)cc(OC4CCC4)nc3cc2F)c1=O [Example 6, 1-(2-Cyclobutoxy-7-fluoro-4-isopropylauinolin-6-yl)-4-ethyl-3-(hydroxymethyl)-1H-1,2,4-triazol-5 (4H)-one] | 1080 | > 100 | 
CCn1c(CO)nn(-c2cc3c(C(C)C)cc(-c4cc(O)ncc4C)nc3cc2F)c1=O [Example 24, 4-Ethyl-1-(7-fluoro-2-(2-hydroxy-5-methylpyridin-4-yl)-4-isopropylquinolin-6-yl)-3-(hydroxymethyl)-1H-1,2,4-triazol-5 (4H)-one] | 33 | > 100 | 
CCn1c(CO)nn(-c2cc3c(C(C)C)cc(-c4ccccc4OC)nc3cc2F)c1=O [Example 1, 4-Ethyl-1-(7-fluoro-4-isopropyl-2-(2-methoxyphenyl)quinolin-6-yl)-3-(hydroxymethyl)-1H-1,2,4-triazol-5 (4H)-one] | 3.3 | 2.6 | 
CCn1c(CO)nn(-c2cc3c(C(C)C)cc(-c4ccccc4C)nc3cc2F)c1=O [Example 9, 4-Ethyl-1-(7-fluoro-4-isopropyl-2-(o-tolyl)quinolin-6-yl)-3-(hydroxymethyl)-1H-1,2,4-triazol-5 (4H)-one] | 0.6 | 0.5 | 
CCn1c(CO)nn(-c2cc3c(C(C)C)cc(-c4c(C)ccnc4OC)nc3cc2F)c1=O [Example 11, 4-Ethyl-2-(7-fluoro-4-isopropyl-2-(2-methoxy-4-methylpyridin-3-yl)quinolin-6-yl)-5-(hydroxymethyl)-2,4-dihydro-3H-1,2,4-triazol-3-one] | 32 | 30 | 

Further lines, results first:

IC50 [1] [nM] | IC50 ([2]; Homo sapiens, MOLM-13, 72 h) [nM] | IC50 [2] [nM] | SMILES
4.7 | 4 |  | CCn1c(CO)nn(-c2cc3c(C(C)C)cc(-c4c(C)ccnc4Cl)nc3cc2F)c1=O [Example 35, 1-(2-(2-Chloro-4-methylpyridin-3-yl)-7-fluoro-4-isopropylquinolin-6-yl)-4-ethyl-3-(hydroxymethyl)-1H-1,2,4-triazol-5 (4H)-one]
1.2 | 2 |  | Cc1n[nH]c(Cl)c1-c1cc(C(C)C)c2cc(-c3nc(CO)n(C)n3)c(F)cc2n1 [Example 30, (3-(2-(5-Chloro-3-methyl-1H-pyrazol-4-yl)-7-fluoro-4-isopropylauinolin-6-yl)-1-methyl-1H-1,2,4-triazol-5-yl)methanol]
5.3 |  | 1 | CCn1c(CO)nn(-c2cc3c(C(C)C(F)(F)F)cc(-c4ccccc4C)nc3cc2F)c1=O (single isomer, unassigned) [Example 37, (R*)-4-Ethyl-1-(7-fluoro-2-(o-tolyl)-4-(1,1,1-trifluoropropan-2-yl)quinolin-6-yl)-3-(hydroxymethyl)-1H-1,2,4-triazol-5 (4H)-one]
2 | 1 |  | Cc1n[nH]c(C(F)(F)F)c1-c1cc(C(C)C)c2cc(-c3cn(C)c(CO)n3)c(F)cc2n1 [Example 33, (4-(7-Fluoro-4-isopropyl-2-(3-methyl-5-(trifluoromethyl)-1H-pyrazol-4-yl)quinolin-6-yl)-1-methyl-1H-imidazol-2-yl)methanol]
3 | 2 |  | Cc1n[nH]c(C(F)(F)F)c1-c1cc(C(C)C)c2cc(-c3nc(CO)n(C)n3)c(F)cc2n1 [Example 28, (3-(7-Fluoro-4-isopropyl-2-(3-methyl-5-(trifluoromethyl)-pH-pyrazol-4-yl)quinolin-6-yl)-1-methyl-1H-1,2,4-triazol-5-yl)methanol]
1 | 0.36 |  | Cc1n[nH]c(C(F)(F)F)c1-c1cc(C(C)C)c2cc(-c3nc(C(C)O)n(C)n3)c(F)cc2n1 (stereo not shown) [Example 29, 1-(3-(7-Fluoro-4-isopropyl-2-(3-methyl-5-(trifluoromethyl)-1H-pyrazol-4-yl)quinolin-6-yl)-1-methyl-1H-1,2,4-triazol-5-yl)ethan-1-ol]
0.32 |  | 0.4 | CCn1c(CO)nn(-c2cc3c(C(C)C(F)(F)F)cc(-c4ccccc4C)nc3cc2F)c1=O (single isomer, unassigned) [Example 36, (S*)-4-Ethyl-1-(7-fluoro-2-(o-tolyl)-4-(1,1,1-trifluoropropan-2-yl)quinolin-6-yl)-3-(hydroxymethyl)-1H-1,2,4-triazol-5 (4H)-one]
1.7 |  |  | [2H]C([2H])([2H])c1ccccc1-c1cc(C(C)C)c2cc(-n3nc(CO)n(CC)c3=O)c(F)cc2n1 [Example 38, 4-Ethyl-1-(7-fluoro-4-isopropyl-2-(o-methyl-d3-phenyl)quinolin-6-yl)-3-(hydroxymethyl)-1H-1,2,4-triazol-5 (4H)-one]
5.2 | 4 |  | CCn1c(CO)nn(-c2cc3c(C(C)C)nc(-c4c(C)n[nH]c4C(F)(F)F)nc3cc2F)c1=O [Example 34, 4-Ethyl-2-(7-fluoro-4-isopropyl-2-(3-methyl-5-(trifluoromethyl)-1H-pyrazol-4-yl)quinazolin-6-yl)-5-(hydroxymethyl)-2,4-dihydro-3H-1,2,4-triazol-3-one]
1.6 | 0.83 |  | Cc1n[nH]c(Cl)c1-c1cc(C(C)C)c2cc(-c3nc(C(C)O)n(C)n3)c(F)cc2n1 (stereo not shown) [Example 31, 1-(3-(2-(5-Chloro-3-methyl-1H-pyrazol-4-yl)-7-fluoro-4-isopropylauinolin-6-yl)-1-methyl-1H-1,2,4-triazol-5-yl)ethan-1-ol]
